Measured values taken from patent publication US20060264410A1, “19,26,27-trinor-1alpha,25-dihydroxyvitamin D3 compounds” (Wisconsin Alumni Research Foundation, priority 2005, published 2006).
Entries after “also recorded” stand apart in the source; their conditions may differ.

Legend:
[1] = target: T1, vitamin D receptor (Homo sapiens, UniProt P11473); settings: from '352, '861 and '622 patents; cited from earlier work
T1 sequence (P11473 1-427): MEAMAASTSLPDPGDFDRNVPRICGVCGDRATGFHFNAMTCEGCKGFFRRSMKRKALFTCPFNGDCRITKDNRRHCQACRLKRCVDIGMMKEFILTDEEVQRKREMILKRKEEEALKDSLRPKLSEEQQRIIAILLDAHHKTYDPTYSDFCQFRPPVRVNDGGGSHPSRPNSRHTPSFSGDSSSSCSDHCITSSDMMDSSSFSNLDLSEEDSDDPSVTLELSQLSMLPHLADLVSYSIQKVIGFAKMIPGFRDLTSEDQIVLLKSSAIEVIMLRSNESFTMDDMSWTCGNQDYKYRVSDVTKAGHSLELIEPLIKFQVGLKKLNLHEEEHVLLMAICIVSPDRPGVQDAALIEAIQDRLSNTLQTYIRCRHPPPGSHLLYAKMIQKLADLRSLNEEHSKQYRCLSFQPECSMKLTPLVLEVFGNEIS

[2] = system: cell differentiation; settings: prior art; cited from earlier work
[3] = prior art; b9 values compared to 1α,25-dihydroxyvitamin D3; cited from earlier work
[4] = target: T2, full-length recombinant rat vitamin D receptor (Rattus norvegicus, UniProt P13053); test: Vitamin D receptor binding, competition with [3H]-1,25-(OH)2-D3; settings: FIGS. 1 and 2
T2 construct: Full-length recombinant rat receptor was expressed in E. coli BL21(DE3) Codon Plus RIL cells; histidine tag (C); made in house; host or cells: E. coli BL21(DE3) Codon Plus RIL
T2 sequence (P13053 1-423): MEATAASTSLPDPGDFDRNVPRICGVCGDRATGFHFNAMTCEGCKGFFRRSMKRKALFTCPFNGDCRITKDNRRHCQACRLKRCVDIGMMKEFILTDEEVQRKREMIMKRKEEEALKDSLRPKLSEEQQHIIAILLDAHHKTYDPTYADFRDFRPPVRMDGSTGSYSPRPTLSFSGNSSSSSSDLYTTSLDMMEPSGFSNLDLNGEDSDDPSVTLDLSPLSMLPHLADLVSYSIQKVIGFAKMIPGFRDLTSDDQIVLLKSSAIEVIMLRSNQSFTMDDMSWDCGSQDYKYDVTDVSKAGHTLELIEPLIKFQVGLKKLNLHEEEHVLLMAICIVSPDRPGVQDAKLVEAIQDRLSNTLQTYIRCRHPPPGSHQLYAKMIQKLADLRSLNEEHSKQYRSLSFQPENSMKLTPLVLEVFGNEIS
Procedure: Full-length recombinant rat receptor was expressed in E. coli BL21(DE3) Codon Plus RIL cells and purified to homogeneity using two different column chromatography systems. The first system was a nickel affinity resin that utilizes the C-terminal histidine tag on this protein. The protein that was eluted from this resin was further purified using ion exchange chromatography (S-Sepharose Fast Flow). Aliquots of the purified protein were quick frozen in liquid nitrogen and stored at −80° C. until use. For use in binding assays, the protein was diluted in TEDK50 (50 mM Tris, 1.5 mM EDTA, pH 7.4, 5 mM DTT, 150 mM KCl) with 0.1% Chaps detergent. The receptor protein and ligand concentration was optimized such that no more than 20% of the added radiolabeled ligand was bound to the receptor.
Unlabeled ligands were dissolved in ethanol and the concentrations determined using UV spectrophotometry (1,25(OH)2D3: molar extinction coefficient=18,200 and λmax=265 nm; Analogs: molar extinction coefficient=42,000 and λmax=252 nm). Radiolabeled ligand (^3H-1,25(OH)2D3, ˜159 Ci/mmol) was added in ethanol at a final concentration of 1 nM.
Radiolabeled and unlabeled ligands were added to 100 mcl of the diluted protein at a final ethanol concentration of ≦10%, mixed and incubated overnight on ice to reach binding equilibrium. The following day, 100 mcl of hydroxylapatite slurry (50%) was added to each tube and mixed at 10-minute intervals for 30 minutes. The hydroxylapaptite was collected by centrifugation and then washed three times with Tris-EDTA buffer (50 mM Tris, 1.5 mM EDTA, pH 7.4) containing 0.5% Titron X-100. After the final wash, the pellets were transferred to scintillation vials containing 4 mL of Biosafe II scintillation cocktail, mixed and placed in a scintillation counter. Total binding was determined from the tubes containing only radiolabeled ligand.

[5] = system: HL-60 cells; test: HL-60 differentiation (nitro blue tetrazolium reduction); assay type: cell-based, Human; settings: FIG. 3
Procedure: The study drugs were dissolved in ethanol and the concentrations determined using UV spectrophotometry. Serial dilutions were prepared so that a range of drug concentrations could be tested without changing the final concentration of ethanol (≦0.2%) present in the cell cultures.
Human promyelocytic leukemia (HL60) cells were grown in RPMI-1640 medium containing 10% fetal bovine serum. The cells were incubated at 37° C. in the presence of 5% CO2.
HL60 cells were plated at 1.2×10^5 cells/mL. Eighteen hours after plating, cells in duplicate were treated with drug. Four days later, the cells were harvested and a nitro blue tetrazolium reduction assay was performed (Collins et al., 1979; J. Exp. Med. 149:969-974). The percentage of differentiated cells was determined by counting a total of 200 cells and recording the number that contained intracellular black-blue formazan deposits. Verification of differentiation to monocytic cells was determined by measuring phagocytic activity (data not shown).

[6] = system: 24-hydroxylase (24Ohase) gene promoter; test: In vitro transcription assay (luciferase reporter in ROS 17/2.8 cells); assay type: cell-based; settings: 24Ohase promoter-luciferase, FIG. 4
Procedure: Transcription activity was measured in ROS 17/2.8 (bone) cells that were stably transfected with a 24-hydroxylase (24Ohase) gene promoter upstream of a luciferase reporter gene (Arbour et al., 1998). Cells were given a range of doses. Sixteen hours after dosing the cells were harvested and luciferase activities were measured using a luminometer. RLU=relative luciferase units.

[7] = Bone calcium mobilization (serum calcium); assay type: in vivo, Sprague-Dawley rats; settings: rats, four ip doses, even at 7,020 pmol/day; FIGS. 5 and 7
Procedure: (§1) Male, weanling Sprague-Dawley rats were placed on Diet 11 (Suda et al. J. Nutr. 100:1049, 1970) (0.47% Ca) diet+vitamins AEK for one week followed by Diet 11 (0.02% Ca)+AEK for 3 weeks. The rats were then switched to a diet containing 0.47% Ca for one week followed by two weeks on the diet containing 0.02% Ca. Dose administration began during the last week on 0.02% calcium diet. Four consecutive ip doses were given approximately 24 hours apart. Twenty-four hours after the last dose, blood was collected from the severed neck and the concentration of serum calcium determined as a measure of bone calcium mobilization. The first 10 cm of the intestine was also collected for intestinal calcium transport analysis using the everted gut sac method.

[8] = Intestinal calcium transport (everted gut sac method); assay type: in vivo, Sprague-Dawley rats; settings: rats, four ip doses; FIGS. 6 and 8
Procedure: as §1

Row | Compound | binding activity to the vitamin D receptor [1] | cell differentiation activity [2] | calcemic / calcium mobilizing activity [3] | activity in binding to the vitamin D receptor compared with 1α,25-dihydroxyvitamin D3 [4] | activity in inducing differentiation of HL-60 cells compared with 1α,25-dihydroxyvitamin D3 [5] | activity in causing transcription compared with 1α,25-dihydroxyvitamin D3 [6] | calcemic activity measured by bone calcium mobilization [7] | intestinal calcium transport [8]
1 | 1α-hydroxy-2-methylene-19-nor-(20S)-homopregnacalciferol | relatively high binding activity | relatively high cell differentiation activity | little if any calcemic activity | – | – | – | – | –
2 | C=C1[C@H](O)CC(=C/C=C2\CCC[C@]3(C)[C@@H]([C@@H](C)CCCCO)CC[C@@H]23)C[C@H]1O [BM, 2-methylene-19,26,27-trinor-(20S)-1α,25-dihydroxyvitamin D3] | – | – | – | slightly less active | only slightly less active; also recorded: about the same activity | slightly less activity | no calcemic activity | do not elevate intestinal calcium transport
3 | 1α-hydroxy-2-methylene-19-nor-bishomopregnacalciferol | relatively high binding activity | relatively high cell differentiation activity | little if any calcemic activity | – | – | – | – | –
4 | CC1[C@H](O)CC(=C/C=C2\CCC[C@]3(C)[C@@H]([C@@H](C)CCCCO)CC[C@@H]23)C[C@H]1O (stereo partly drawn) [T-74, 2β-methyl-19,26,27-trinor-(20S)-1α,25-dihydroxyvitamin D3] | – | – | – | significantly less active | significantly less activity | significantly less activity | no calcemic activity | do not elevate intestinal calcium transport
5 | C[C@H](CCCC(C)(C)O)[C@H]1CC[C@H]2/C(=C/C=C3C[C@@H](O)C[C@H](O)C3)CCC[C@]12C [1α,25-dihydroxy-19-nor-vitamin D3] | – | high potency | very low calcium mobilizing activity | – | – | – | – | –
6 | C=C1[C@H](O)CC(=C/C=C2\CCC[C@]3(C)[C@@H](CC)CC[C@@H]23)C[C@H]1O [1α-Hydroxy-2-methylene-19-nor-pregnacalciferol] | relatively high binding activity | relatively high cell differentiation activity | little if any calcemic activity | – | – | – | – | –
7 | CC(CCCCO)C1CCC2C(=CC=C3CC(O)C(C)C(O)C3)CCCC21C [P10, 2α-methyl-19,26,27-trinor-(20S)-1α,25-dihydroxyvitamin D3] | – | – | – | slightly more active | less activity | slightly less activity | no calcemic activity | do not elevate intestinal calcium transport
